Measurements published in ChEMBL document CHEMBL1201862, “PubChem BioAssay data set” (2004).
Activity calls are given as the source filed them.

Assays:
[1] = molecular target: DNA dC->dU-editing enzyme APOBEC-3G (Homo sapiens, UniProt Q9HC16); test: Dose Response confirmation of small molecule APOBEC3G DNA Deaminase Inhibitors via a fluorescence-based single-stranded DNA deaminase assay. [Related pubchem assays (depositor defined):AID493012, AID493028]; format: functional
cells [2] = format: functional, cell-based
Leucine aminopeptidase = molecular target: T1, Leucine aminopeptidase (Plasmodium falciparum 3D7, UniProt Q8IL11); test: P. falciparum M17LAP inhibitors, primary screen, biochemical, fluorogenic H-Leu-NHMec substrate, 1536-well (AID 1619); format: functional
T1 sequence (Q8IL11 whole entry): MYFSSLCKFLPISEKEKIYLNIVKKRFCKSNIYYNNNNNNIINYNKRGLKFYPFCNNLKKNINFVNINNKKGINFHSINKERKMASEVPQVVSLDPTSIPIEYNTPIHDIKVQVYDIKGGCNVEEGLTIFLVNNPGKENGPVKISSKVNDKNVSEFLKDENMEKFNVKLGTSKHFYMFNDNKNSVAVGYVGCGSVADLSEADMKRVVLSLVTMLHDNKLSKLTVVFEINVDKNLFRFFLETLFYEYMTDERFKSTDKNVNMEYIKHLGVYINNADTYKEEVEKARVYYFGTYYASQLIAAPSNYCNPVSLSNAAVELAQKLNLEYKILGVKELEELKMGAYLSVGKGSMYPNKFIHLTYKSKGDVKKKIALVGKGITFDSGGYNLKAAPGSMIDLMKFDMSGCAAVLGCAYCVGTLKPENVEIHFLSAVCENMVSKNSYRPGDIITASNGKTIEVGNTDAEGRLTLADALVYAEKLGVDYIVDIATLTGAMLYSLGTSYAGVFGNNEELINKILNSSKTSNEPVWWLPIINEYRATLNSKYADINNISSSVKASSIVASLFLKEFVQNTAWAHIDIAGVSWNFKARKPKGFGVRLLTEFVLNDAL

cells [3] = format: functional, cell-based; remark: listed apart in the source
ORF 73 = ORF 73 (Human herpesvirus 8, UniProt O40947); test: inhibitors of C-LANA binding to LBS DNA, dose response, biochemical, fluorescence polarization, cherry-picked samples (AID 504725); design: species or system Human gammaherpesvirus 8;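 further: fluorescence polarization of a labeled DNA duplex reporting LANA DNA binding; potency is for inhibitors that block LANA binding to the DNA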
ORF 73, sequence (O40947 whole entry): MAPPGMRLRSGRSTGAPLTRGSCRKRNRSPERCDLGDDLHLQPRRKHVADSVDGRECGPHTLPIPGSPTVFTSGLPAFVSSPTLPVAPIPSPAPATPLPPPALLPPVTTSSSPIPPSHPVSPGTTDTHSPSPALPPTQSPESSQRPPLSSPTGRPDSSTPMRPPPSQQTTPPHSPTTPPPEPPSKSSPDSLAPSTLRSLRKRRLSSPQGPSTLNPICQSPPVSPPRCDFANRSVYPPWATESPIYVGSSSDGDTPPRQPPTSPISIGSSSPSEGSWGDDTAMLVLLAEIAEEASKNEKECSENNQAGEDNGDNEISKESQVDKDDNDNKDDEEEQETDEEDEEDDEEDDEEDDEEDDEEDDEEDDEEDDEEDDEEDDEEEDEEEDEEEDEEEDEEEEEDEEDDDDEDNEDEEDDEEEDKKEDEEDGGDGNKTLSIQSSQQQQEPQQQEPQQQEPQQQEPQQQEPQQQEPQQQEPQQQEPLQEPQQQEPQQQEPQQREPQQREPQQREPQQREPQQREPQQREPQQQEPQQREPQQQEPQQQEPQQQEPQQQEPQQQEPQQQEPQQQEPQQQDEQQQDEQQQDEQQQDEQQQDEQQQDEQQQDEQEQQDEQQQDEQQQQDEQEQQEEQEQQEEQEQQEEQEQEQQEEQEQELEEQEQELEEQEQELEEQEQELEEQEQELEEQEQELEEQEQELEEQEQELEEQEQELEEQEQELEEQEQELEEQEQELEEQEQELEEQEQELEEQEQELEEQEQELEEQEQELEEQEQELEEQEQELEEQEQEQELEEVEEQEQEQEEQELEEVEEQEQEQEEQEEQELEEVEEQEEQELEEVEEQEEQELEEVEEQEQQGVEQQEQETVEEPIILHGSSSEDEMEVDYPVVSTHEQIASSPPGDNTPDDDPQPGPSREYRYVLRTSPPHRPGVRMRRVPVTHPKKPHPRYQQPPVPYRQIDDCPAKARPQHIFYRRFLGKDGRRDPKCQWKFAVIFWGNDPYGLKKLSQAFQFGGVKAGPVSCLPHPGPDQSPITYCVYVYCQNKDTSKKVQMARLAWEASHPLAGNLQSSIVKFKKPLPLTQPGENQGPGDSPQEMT

[4] = molecular target: T2, Long-chain-fatty-acid--AMP ligase FadD28 (Mycobacterium tuberculosis, UniProt P9WQ59); test: Fluorescence polarization aasay to screen for inhibitors that compete for the binding of FadD28 to a bisubstrate Measured in Biochemical System Using Plate Reader - 2147-01_Inhibitor_Dose_CherryPick_Activity.; format: functional, Mycobacterium tuberculosis H37Rv
T2 sequence (P9WQ59 whole entry): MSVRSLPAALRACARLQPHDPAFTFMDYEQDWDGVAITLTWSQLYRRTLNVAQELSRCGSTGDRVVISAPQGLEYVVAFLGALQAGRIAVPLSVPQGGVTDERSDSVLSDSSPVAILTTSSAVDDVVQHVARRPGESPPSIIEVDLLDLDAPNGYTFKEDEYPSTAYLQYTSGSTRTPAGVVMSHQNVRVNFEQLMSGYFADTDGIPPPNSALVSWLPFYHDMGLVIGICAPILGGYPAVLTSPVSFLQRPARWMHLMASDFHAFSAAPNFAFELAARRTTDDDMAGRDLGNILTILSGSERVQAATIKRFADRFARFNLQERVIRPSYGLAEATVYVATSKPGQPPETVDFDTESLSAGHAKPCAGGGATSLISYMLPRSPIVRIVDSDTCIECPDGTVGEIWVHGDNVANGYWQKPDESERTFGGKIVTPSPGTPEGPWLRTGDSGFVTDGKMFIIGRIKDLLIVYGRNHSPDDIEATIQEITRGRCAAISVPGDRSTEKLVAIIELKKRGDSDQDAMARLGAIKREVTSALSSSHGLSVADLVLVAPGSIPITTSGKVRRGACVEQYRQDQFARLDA

[5] = molecular target: DNA (cytosine-5)-methyltransferase 1 (Homo sapiens, UniProt P26358); test: DNMT1 methyltransferase inhibitors, confirmation, biochemical, fluorescent molecular beacon (AID 602386); format: functional
[6] = molecular target: T3, Carboxy-terminal domain RNA polymerase II polypeptide A small phosphatase 1 (Homo sapiens, UniProt Q9GZU7); test: inhibitors of CTDSP1, concentration-response testing, biochemical assay, absorbance-based, actives from ultra-high-throughput screening (AID 540297); format: functional
T3 sequence (Q9GZU7 whole entry): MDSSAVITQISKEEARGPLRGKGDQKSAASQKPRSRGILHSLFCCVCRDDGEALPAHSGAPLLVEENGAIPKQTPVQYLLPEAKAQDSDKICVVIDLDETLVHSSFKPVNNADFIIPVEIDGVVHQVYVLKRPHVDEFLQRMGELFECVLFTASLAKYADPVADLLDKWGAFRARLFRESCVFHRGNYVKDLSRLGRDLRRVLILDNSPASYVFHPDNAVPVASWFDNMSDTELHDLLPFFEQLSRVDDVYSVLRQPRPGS

[7] = molecular target: Voltage-dependent T-type calcium channel subunit alpha-1H (Homo sapiens, UniProt O95180); format: functional;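 further: channel activity triggered by adding a high calcium stimulation buffer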
Voltage-dependent T-type calcium channel subunit alpha-1H, sequence (O95180 whole entry): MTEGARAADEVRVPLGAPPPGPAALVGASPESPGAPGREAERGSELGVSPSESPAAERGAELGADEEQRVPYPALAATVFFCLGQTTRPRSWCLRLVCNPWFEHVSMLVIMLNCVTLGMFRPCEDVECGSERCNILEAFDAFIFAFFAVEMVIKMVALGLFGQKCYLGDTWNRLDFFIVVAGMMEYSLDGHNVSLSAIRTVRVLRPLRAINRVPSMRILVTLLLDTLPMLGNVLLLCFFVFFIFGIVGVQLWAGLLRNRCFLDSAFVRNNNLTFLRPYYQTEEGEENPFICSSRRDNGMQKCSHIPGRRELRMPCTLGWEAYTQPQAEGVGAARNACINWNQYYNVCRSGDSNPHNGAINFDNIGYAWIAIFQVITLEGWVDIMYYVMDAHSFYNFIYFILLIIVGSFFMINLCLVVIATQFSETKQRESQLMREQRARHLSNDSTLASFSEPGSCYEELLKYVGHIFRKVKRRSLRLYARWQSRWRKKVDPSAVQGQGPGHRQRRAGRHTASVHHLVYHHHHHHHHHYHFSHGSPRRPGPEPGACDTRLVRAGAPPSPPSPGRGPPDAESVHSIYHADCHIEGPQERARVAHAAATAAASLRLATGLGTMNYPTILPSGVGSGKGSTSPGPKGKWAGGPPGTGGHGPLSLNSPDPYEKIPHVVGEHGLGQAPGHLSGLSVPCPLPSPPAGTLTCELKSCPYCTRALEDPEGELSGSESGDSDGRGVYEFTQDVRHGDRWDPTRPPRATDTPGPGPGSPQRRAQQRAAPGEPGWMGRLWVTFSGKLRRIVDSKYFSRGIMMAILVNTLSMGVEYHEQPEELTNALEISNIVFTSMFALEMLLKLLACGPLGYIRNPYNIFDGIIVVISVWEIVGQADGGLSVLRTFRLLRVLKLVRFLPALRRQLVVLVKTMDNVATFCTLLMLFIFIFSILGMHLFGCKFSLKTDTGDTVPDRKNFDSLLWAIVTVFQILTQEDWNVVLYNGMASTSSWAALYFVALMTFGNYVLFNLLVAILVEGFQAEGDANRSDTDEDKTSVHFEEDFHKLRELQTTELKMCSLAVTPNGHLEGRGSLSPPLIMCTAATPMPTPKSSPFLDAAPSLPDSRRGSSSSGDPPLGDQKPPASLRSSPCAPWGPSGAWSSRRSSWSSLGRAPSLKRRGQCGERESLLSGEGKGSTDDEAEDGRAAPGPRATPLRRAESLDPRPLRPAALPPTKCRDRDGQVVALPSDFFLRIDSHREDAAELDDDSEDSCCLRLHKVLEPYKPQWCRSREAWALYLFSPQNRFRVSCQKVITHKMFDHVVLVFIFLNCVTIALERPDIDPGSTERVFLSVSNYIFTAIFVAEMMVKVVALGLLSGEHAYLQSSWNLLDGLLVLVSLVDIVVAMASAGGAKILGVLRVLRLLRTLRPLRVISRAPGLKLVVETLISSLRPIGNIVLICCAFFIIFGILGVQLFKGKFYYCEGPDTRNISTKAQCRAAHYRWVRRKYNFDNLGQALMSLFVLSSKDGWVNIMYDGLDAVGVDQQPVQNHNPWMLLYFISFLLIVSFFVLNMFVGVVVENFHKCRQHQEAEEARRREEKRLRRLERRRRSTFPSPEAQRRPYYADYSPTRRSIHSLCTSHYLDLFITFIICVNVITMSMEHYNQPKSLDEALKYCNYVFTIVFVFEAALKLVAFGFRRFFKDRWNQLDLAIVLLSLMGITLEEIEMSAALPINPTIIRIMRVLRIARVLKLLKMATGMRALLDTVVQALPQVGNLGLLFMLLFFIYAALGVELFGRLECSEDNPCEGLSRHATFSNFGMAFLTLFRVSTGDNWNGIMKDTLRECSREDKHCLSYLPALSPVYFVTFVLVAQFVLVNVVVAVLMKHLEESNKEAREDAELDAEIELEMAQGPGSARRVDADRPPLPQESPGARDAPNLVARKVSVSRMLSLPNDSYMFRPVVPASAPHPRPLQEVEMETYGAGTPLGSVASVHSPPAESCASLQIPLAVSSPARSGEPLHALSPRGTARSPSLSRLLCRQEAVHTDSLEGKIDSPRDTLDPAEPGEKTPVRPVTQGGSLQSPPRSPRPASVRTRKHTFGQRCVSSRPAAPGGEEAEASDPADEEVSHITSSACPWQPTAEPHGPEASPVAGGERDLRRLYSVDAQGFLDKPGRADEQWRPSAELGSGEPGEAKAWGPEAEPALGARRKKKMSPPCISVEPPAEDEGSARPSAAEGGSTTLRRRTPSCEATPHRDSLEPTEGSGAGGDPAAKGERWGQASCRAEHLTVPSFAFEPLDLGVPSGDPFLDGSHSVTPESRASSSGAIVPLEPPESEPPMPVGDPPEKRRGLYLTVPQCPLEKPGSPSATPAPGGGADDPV

[8] = Luminescence Cell-Based Dose Retest to Confirm Inhibitors of Cancer Stem Cells. [Related pubchem assays (depositor defined):AID2717, AID2721]; format: functional; conditions: Homo sapiens
[9] = inhibitors of intracellular T. cruzi replication, confirmation, NIH3T3 host cells, beta-gal luminescence (AID 2044); format: functional, cell-based;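 further: intracellular parasites grown in NIH/3T3 mouse fibroblasts as host cells; luminescent beta-galactosidase reporter signal from transgenic T. cruzi replicating inside host cells; inhibitors lower the luminescence signal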
[10] = cytotoxicity toward DRD oncogenic fibroblasts, dose response, cell-based, non-viral oncogenic, luminescence (AID 1934); format: functional; conditions: Homo sapiens
[11] = molecular target: T4, Histone-lysine N-methyltransferase NSD2 (Homo sapiens, UniProt O96028); format: biochemical
T4 sequence (O96028 whole entry): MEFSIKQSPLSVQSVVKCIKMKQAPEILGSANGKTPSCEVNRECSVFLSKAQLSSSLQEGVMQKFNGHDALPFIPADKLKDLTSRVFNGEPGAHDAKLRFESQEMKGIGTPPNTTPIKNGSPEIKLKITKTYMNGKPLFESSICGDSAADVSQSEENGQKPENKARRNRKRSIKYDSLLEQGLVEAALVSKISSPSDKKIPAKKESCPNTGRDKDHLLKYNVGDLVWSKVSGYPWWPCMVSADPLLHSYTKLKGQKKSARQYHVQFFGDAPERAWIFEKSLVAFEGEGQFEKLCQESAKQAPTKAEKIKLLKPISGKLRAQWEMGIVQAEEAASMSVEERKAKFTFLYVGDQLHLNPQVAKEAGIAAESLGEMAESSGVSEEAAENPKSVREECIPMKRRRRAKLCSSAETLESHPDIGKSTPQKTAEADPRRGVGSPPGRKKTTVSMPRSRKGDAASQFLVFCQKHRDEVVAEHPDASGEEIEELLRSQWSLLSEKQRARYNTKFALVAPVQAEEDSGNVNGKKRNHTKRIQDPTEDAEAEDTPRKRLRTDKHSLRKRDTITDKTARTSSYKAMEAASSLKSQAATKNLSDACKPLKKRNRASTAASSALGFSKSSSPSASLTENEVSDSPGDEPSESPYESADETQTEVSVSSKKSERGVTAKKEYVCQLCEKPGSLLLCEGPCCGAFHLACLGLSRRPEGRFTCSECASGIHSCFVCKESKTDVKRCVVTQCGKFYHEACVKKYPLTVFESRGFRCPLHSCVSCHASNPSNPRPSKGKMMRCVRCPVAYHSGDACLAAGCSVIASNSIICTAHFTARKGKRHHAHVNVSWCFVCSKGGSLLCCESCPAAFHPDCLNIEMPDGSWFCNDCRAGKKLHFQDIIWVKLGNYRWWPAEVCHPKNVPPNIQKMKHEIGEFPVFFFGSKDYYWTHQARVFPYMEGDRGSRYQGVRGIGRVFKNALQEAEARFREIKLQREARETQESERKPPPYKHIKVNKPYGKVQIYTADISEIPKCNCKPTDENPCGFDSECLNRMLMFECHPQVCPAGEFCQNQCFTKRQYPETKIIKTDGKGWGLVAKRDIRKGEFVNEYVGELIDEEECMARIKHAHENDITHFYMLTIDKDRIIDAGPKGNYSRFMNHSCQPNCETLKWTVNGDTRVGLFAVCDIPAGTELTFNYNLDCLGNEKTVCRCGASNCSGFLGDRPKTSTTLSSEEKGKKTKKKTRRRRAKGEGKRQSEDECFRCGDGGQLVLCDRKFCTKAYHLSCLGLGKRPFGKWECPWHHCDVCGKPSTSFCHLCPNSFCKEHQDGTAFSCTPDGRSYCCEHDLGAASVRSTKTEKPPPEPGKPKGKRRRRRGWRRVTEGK

BJ [12] = test: cytotoxicity toward BJ-TERT fibroblasts, dose response, cell-based, RAS-independent, luminescence (AID 1933); format: functional; conditions: Homo sapiens
[13] = cytotoxicity toward NIH3T3 fibroblasts, dose response, counter-screen, cell-based, ATP luminescence, mouse fibroblasts (AID 2010); format: functional;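 further: cells exposed to compound for about 90 hours before reading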
[14] = HepG2 cell cytotoxicity, dose response, cytotoxicity control for Shn3 inhibitor project, CellTiter-Glo, cherry-picked (AID 624134); format: functional, cell-based
BJ [15] = test: cells; format: functional, cell-based; conditions: Homo sapiens
BJ [16] = test: cytotoxicity toward BJ-TERT-LT-ST fibroblasts, dose response, cell-based, RAS-independent, luminescence (AID 1935); format: functional; conditions: Homo sapiens;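 further: BJ fibroblasts immortalized with TERT plus LT and ST oncogenes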
[17] = control 3'UTR Renilla luciferase suppression, dose response, counter-screen for Shn3 inhibitor project, cell-based, Clone20-Shn3RL, cherry-picked (AID 624133); format: functional
Hexokinase HKDC1 = molecular target: T5, Hexokinase HKDC1 (Homo sapiens, UniProt Q2TB90); test: HKDC1 hexokinase inhibitors, dose response, biochemical, W721R variant (AID 504729); format: functional
T5 sequence (Q2TB90 whole entry): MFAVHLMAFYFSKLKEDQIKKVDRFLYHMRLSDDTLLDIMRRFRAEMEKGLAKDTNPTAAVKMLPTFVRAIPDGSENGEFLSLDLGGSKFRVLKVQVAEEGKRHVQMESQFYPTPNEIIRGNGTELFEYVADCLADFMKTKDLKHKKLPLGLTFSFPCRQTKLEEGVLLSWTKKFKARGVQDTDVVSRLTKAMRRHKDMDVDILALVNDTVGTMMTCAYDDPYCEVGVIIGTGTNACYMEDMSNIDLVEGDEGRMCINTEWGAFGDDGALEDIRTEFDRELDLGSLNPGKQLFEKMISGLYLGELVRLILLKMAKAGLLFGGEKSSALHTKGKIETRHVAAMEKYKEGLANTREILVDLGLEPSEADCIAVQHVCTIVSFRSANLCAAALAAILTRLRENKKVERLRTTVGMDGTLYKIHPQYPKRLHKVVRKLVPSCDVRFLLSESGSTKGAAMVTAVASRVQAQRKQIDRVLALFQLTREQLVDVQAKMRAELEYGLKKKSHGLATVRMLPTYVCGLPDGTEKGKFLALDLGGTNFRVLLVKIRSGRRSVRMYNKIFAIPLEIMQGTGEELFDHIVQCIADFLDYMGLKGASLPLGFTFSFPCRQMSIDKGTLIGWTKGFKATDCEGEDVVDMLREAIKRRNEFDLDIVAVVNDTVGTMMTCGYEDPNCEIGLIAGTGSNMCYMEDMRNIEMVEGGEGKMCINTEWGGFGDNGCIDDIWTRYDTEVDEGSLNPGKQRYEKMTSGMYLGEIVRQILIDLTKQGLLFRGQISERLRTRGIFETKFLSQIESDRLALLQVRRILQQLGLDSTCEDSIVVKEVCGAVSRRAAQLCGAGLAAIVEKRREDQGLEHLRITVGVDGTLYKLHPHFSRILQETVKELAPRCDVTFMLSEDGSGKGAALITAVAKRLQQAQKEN

[18] = Shn3 3'UTR reporter inhibitors, dose response, cell-based, Clone20 osteoblasts, firefly luciferase, cherry-picked (AID 624132); format: functional;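 further: firefly luciferase luminescence from reporter carrying the Shn3 3'UTR in osteoblasts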
Trypsin = Trypsin (Sus scrofa, UniProt P00761); test: porcine trypsin inhibitors, dose response, selectivity assay for Rce1 protease inhibitor project, biochemical, quenched peptide fluorescence, cherry-pick (AID 488789)
Trypsin, sequence (P00761 whole entry): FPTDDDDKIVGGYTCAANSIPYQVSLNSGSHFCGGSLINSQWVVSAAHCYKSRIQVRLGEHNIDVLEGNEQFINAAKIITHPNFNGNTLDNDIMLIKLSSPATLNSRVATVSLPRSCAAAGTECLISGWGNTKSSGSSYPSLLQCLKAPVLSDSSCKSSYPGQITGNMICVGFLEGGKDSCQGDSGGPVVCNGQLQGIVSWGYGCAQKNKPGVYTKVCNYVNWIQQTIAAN

CAAX prenyl protease 2 = molecular target: T6, CAAX prenyl protease 2 (Saccharomyces cerevisiae S288c, UniProt Q03530); format: biochemical
T6 sequence (Q03530 whole entry): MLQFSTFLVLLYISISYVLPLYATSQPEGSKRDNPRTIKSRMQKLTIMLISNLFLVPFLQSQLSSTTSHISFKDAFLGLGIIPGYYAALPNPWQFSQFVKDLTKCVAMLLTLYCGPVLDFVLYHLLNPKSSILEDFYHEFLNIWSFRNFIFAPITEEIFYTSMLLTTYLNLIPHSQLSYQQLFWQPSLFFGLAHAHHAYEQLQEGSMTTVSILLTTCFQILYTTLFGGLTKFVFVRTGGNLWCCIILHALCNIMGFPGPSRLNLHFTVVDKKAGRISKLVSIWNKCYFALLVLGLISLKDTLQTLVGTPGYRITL

DNA dC->dU-editing enzyme APOBEC-3G, sequence (Q9HC16 whole entry): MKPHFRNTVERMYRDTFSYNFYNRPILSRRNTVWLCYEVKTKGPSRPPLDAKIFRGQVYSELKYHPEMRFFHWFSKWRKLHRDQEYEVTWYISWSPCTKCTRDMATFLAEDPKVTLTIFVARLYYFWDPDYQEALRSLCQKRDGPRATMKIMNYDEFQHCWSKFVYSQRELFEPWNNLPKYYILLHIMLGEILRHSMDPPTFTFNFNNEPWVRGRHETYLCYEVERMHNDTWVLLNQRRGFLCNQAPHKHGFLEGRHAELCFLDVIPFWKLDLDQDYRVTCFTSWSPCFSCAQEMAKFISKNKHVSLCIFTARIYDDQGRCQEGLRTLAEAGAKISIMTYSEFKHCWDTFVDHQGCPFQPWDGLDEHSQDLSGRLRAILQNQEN

In the case of COc1cccc(Nc2nnc(S)s2)c1, the IC50 [1] is reported as > 100 µM (inactive), the EC50 (cells [2]) is reported as > 350 µM (not active) and the IC50 (Leucine aminopeptidase) is reported as 6.54 µM (active). For the same compound, the EC50 (cells [3]) was > 350 µM (not active).
With Cc1ccccc1NC(=O)CN1C(=O)N/C(=C\c2cccn2-c2cccc(C(=O)O)c2)C1=O the AC50 (ORF 73) was 74.7 µM (active), the AC50 [4] was 55.3 µM (active) and the IC50 [5] was 6.37 µM (active). For the same compound, the IC50 [6] was 4.42 µM (active).
For O=C(NC1CCCC1)C(c1ccccc1)N(Cc1ccc2c(c1)OCO2)C(=O)Cc1cccs1 (stereo unspecified), the EC50 [7] was 1.52 µM (active).
With COc1ccc(Cn2nnnc2C(C(C)C)N(Cc2ccco2)Cc2cccs2)cc1 (stereo unspecified) the EC50 [7] was 6.56 µM (active) and the AC50 [8] was 2.02 µM (active).
In the case of CCN(CC)CCNc1cc(C)nc2c1C(=O)C(=O)C=C2N1CCCCC1, the EC50 [9] is reported as 1.44 µM (active), the EC50 [10] is reported as 9.47 µM (active) and the AC50 [11] is reported as > 20 µM (inactive). The EC50 (cells [2]) was > 350 µM (not active), the EC50 (BJ [12]) was 5.91 µM (inconclusive) and the EC50 [13] was > 60 µM (not active). The EC50 (cells [3]) was > 350 µM (not active), the AC50 [14] was 5.54 µM (active) and the EC50 (BJ [15]) was 10.2 µM (active). For the same compound, the EC50 (BJ [16]) was 8.38 µM (active), the AC50 [17] was 6.45 µM (active) and the IC50 (Hexokinase HKDC1) was 13.2 µM (active). For the same compound, the AC50 [18] was 6.61 µM (active).
In the case of CCN(CC)Cc1c(O)ccc2c(=O)c(-c3ccccc3OC)coc12, the AC50 (Trypsin) is reported as 21.4 µM (active) and the AC50 (CAAX prenyl protease 2) is reported as 13.8 µM (active).
